Measured values reported in paper PMC3600310, “Phage Display Screening for Tumor Necrosis Factor-α-Binding Peptides: Detection of Inflammation in a Mouse Model of Hepatitis” (International Journal of Peptides, 2013).

Legend:
human TNF-α [1] = assay: ELISA estimation of apparent dissociation constant (Kd*) between phage clones and TNF-α; format: binding; conditions: phage clones; ELISA Kd* on BSA divided by Kd* on TNF-α
Method: (a) Estimation of the Apparent Dissociation Constant (K d*) between the Phage Clones and TNF-α. The K d* of phage clones against their target was assessed by the ELISA (enzyme-linked immunosorbent assay) method, using a range of phage dilutions incubated with the specific target.
ELISA plates were treated overnight with the target solution (human TNF-α, 0.01 mg/mL, at 4°C). The next day, the target solution was replaced by the blocking solution as described above. Plates were then incubated for 2 h at 37°C with serial phage dilutions (6.5 × 10^−11 – 3.3 × 10^−8 M) prepared in PBS containing 0.3% Tween 20. After rinsing the plate 6 times with the same buffer, phages were detected with a peroxidase-conjugated anti-M13 monoclonal antibody (Amersham Pharmacia Biotech Benelux, Roosendaal, The Netherlands) diluted 1 : 5000 in the blocking buffer. The peroxidase detection was performed using 2,2′-azino-bis[3-ethylbenztiazoline-6-sulfonic acid, diammonium salt] (ABTS, Sigma-Aldrich; 22 mg in 100 mL of 50 mM sodium citrate, pH 4.0) supplemented with 0.05% H2O2. After 30–60 min of incubation at room temperature, the OD405 values were measured on a microplate reader (Stat-Fax-2100, Awareness Technology Inc., Fisher Bioblock Scientific, Tournai, Belgium) for K d* evaluation.

human TNF-α [2] = assay: ELISA competition of phage clones with an anti-TNF-α antibody; format: binding; conditions: for IC50: antibody concentration that inhibits by 50% the phage-TNF-α interaction, antibody 1.3 × 10^−9 to 6.66 × 10^−7 M pre-incubated 30 min, then phage at Kd* concentration 1 h, high IC50 = strong phage binding, read-out: IC50 of the anti-TNF-α antibody against the phage clone; for IC50 Ab anti-TNF-α/Kd clone ratio: phage clones, IC50 of the anti-TNF-α antibody divided by Kd* of the clone
Method: (b) Competition Experiments with an Anti-TNF-α Antibody. Competition experiments were performed in the same manner as the K d* experiments except that clones were set in competition with an anti-TNF-α antibody (R&D Systems Inc., Abington, UK) in dilutions ranging from 1.3 × 10^−9 to 6.66 × 10^−7 M in a PBS solution. Plates were first incubated for 30 min with 50 μL/well of antibody dilutions before a one-hour incubation with 50 μL of phage solutions at the K d* concentration. The IC50 of the anti-TNF-α antibody is the antibody concentration required to inhibit by 50% the interaction between phages and TNF-α.
The objective of this test is to set up a competition between every phage clone and another ligand of the target to calculate an inhibition constant value (IC50).

[3] = ELISA interaction of biotinylated peptides with PFBB coated plate (no target); format: binding; conditions: free biotinylated peptide; plate coated with protein-free blocking buffer only; Kd* values could not be estimated
Method: The affinity of the selected peptides was evaluated by ELISA as for the phage clones (see Section 2.1.3). The target was immobilized overnight on a 96-well plate at 4°C before a 2-hour incubation with a protein-free blocking buffer solution (PFBB, Pierce, Aalst, Belgium) and then with a range of peptide dilutions: 10^‒3 M to 10^‒6 M. The target-bound biotinylated peptides were detected using ABC (Avidin Biotin Complex) and ABTS solutions as described above. The dissociation constant was estimated from the inflection point of the curve.

TNF-α = TNF-α detection by biotinylated 2C and 2L peptides in liver histological sections; parameters: species or system mouse; conditions: biotinylated peptide 20 μM overnight, ABC complex/DAB, ex vivo
Method: Adult mice (n = 6) received a single i.p. injection of 20 mg/Kg of ConA [21], a lymphocyte T activator producing inflammation in mice liver.
Mice were sacrificed 2 hours after intravenous injection of ConA, and their livers were fixed for 24 h in 4% paraformaldehyde. After fixation, the liver was dehydrated by several alcohol and butanol soakings and the organ was subsequently embedded in paraffin according to standard procedures. Sections of 4-micrometer thickness were cut for histological tests.
TNF-α detection by the phage display-selected 2C and 2L peptides was carried out with the same protocol as for anti-TNF-α polyclonal antibody (see Section 2.4.2). Briefly, liver sections were incubated overnight with the biotinylated peptides (20 μM). Reactive sites were detected with the ABC complex and DAB staining.

| Substance | Kd BSA/Kd TNF-α ratio (human TNF-α [1]) | IC50 (human TNF-α [2]) [µM] | IC50 Ab anti-TNF-α/Kd clone ratio (human TNF-α [2]) | Interaction with the PFBB coated plate [3] | Staining of healthy liver sections (TNF-α) | Staining of liver sections of ConA-treated mice (TNF-α; C57BL/6 mice, ConA 20 mg/Kg, sacrificed 2 hours after injection) |
| --- | --- | --- | --- | --- | --- | --- |
| C-GSKTQAP-C (disulfide) [Clone C2-R3, phage clone 2 from biopanning round 3 displaying cyclic heptapeptide C-GSKTQAP-C] | 6 × 10^6 | 0.112 | 1087 |  |  |  |
| (C-)PATLTSL(-C) (disulfide) [Clone 2C, biotinylated cyclic form of the PATLTSL peptide (peptide 2)] |  |  |  | only a weak interaction | did not show such a staining |  |
| C-PATLTSL-C (disulfide) [Clone C30-R3, phage clone 30 from round 3 displaying cyclic heptapeptide C-PATLTSL-C] | 4.2 × 10^6 | 0.127 | 6195 |  |  |  |
| C-NNPLKSL-C (disulfide) [Clone C47-R4, phage clone 47 from round 4 displaying cyclic heptapeptide C-NNPLKSL-C] | 0.02 |  |  |  |  |  |
| PATLTSL [Clone 2L, biotinylated linear form of the PATLTSL peptide (peptide 2)] |  |  |  | only a weak interaction |  | did not yield such a result |
